Data on 57 compounds can be found in US9708278B2, “Substituted 4-benzyl-3,4-dihydro-2H-benzo[B][1,4]oxazine-2-carboxamide analogs as positive allosteric modulators of muscarinic acetycholine receptor M1” (Vanderbilt University, priority 2013, dated 2017).

Usually EC50 stands for the midpoint of the concentration-response curve.

The target in the first assay is T1, mAChR M1 (UniProt P08482).
T1 sequence (P08482 1-460): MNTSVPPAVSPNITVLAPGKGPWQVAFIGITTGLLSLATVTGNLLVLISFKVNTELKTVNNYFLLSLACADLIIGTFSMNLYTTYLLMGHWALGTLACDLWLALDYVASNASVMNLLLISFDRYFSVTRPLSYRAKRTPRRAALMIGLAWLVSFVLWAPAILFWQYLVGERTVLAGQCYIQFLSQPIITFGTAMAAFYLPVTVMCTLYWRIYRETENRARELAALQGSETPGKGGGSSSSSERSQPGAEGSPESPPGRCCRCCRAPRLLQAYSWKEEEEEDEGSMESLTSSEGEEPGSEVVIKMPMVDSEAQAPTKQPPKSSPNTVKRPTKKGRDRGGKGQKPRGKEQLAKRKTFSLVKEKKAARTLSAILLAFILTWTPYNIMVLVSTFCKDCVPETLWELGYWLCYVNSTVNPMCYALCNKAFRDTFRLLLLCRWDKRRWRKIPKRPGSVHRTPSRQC
As to the kind of experiment: mAChR M1 cell-based functional assay (calcium mobilization, PAM mode). As to conditions: positive allosteric modulator activity: concentration-dependent increase in the EC20 acetylcholine response; calcium flux in CHO-K1 cells stably expressing mAChR M1. An excerpt:
The calcium mobilization assay was also used to determine “efficacy”.
N-Substituted 3,4-dihydro-benzo[b][1,4]oxazine-2-carboxamide analogs were synthesized as described above. […] The compound number corresponds to the compound numbers used in Table I.
In the case of `O=C(Nc1ccccc1F)C1CN(Cc2ccc(-n3cccn3)cc2)c2ccccc2O1` (stereo not drawn) [Compound B55], the 50% effective concentration (EC50) is at least 10 µM.

Staying with this assay, now noted: positive allosteric modulator activity: concentration-dependent increase in the EC20 acetylcholine response; calcium flux in CHO-K1 cells stably expressing mAChR M1; read-out: EC50.
As to `O=C(NCCCN1CCOCC1)C1CN(Cc2ccc(-n3cccn3)cc2)c2ccccc2O1` (stereo not drawn) [Compound B24], the concentration for a half-maximal effect (EC50) is at least 10 µM. The same measure, in the same setting: the same measure for `COC(=O)CNC(=O)C1CN(Cc2ccc(-n3cccn3)cc2)c2ccccc2O1` (stereo not drawn) [Compound B13]: 1.44 µM. Still for that read-out and setting: the same measure for `O=C(NCC(F)F)C1CN(Cc2ccc(-n3cccn3)cc2)c2ccccc2O1` (stereo not drawn) [Compound B52]: at least 10 µM. Same read-out and setting: under `O=C(NC1CCCCC1)C1CN(Cc2ccc(-n3cccn3)cc2)c2ccccc2O1` (stereo not drawn) [Compound B18] stands at least 10 µM. On to `O=C(Nc1ccccc1)C1CN(Cc2ccc(-n3cccn3)cc2)c2ccccc2O1` (stereo not drawn) [Compound B31], for which the concentration giving a half-maximal response (EC50) was above 30 µM. The same measure, in the same setting: the same measure for `O=C(Nc1ccn[nH]1)C1CN(Cc2ccc(-n3cccn3)cc2)c2ccccc2O1` (stereo not drawn) [Compound B47]: above 30 µM; for `CC(C)(CO)NC(=O)C1CN(Cc2ccc(-n3cccn3)cc2)c2ccccc2O1` (stereo not drawn) [Compound B16]: above 30 µM. Regarding `O=C(NCC(O)C(F)(F)F)C1CN(Cc2ccc(-n3cccn3)cc2)c2ccccc2O1` (stereo not drawn) [Compound B46], the EC50 came out at 2.28 µM. Still for that read-out and setting: under `O=C(NC1CCCOC1)C1CN(Cc2ccc(-n3cccn3)cc2)c2ccccc2O1` (stereo not drawn) [Compound B37] stands at least 10 µM. Still for that read-out and setting: the same measure for `O=C(NCCOc1ccc(F)cc1)C1CN(Cc2ccc(-n3cccn3)cc2)c2ccccc2O1` (stereo not drawn) [Compound B40]: above 30 µM. The same measure, in the same setting: the same measure for `O=C(NCC(F)(F)F)C1CN(Cc2ccc(-n3cccn3)cc2)c2ccccc2O1` (stereo not drawn) [Compound B26]: above 30 µM; for `O=C(N[C@H]1CCC[C@@H]1O)C1CN(Cc2ccc(-n3cccn3)cc2)c2ccccc2O1` (stereo partly drawn) [Compound B54]: 1.15 µM. For the compound `O=C(NCCO)C1CN(Cc2ccc(-n3cccn3)cc2)c2ccccc2O1` (stereo not drawn) [Compound B33], the concentration giving a half-maximal response (EC50) came to 6.54 µM. The same measure, in the same setting: under `NC(=O)C1CN(Cc2ccc(-n3cccn3)cc2)c2ccccc2O1` (stereo not drawn) [Compound B32] stands 3.3 µM; under `O=C(Nc1cccc2cn[nH]c12)C1CN(Cc2ccc(-n3cccn3)cc2)c2ccccc2O1` (stereo not drawn) [Compound B45], 7.38 µM. Same read-out and setting: under `O=C(Nc1ncccc1F)C1CN(Cc2ccc(-n3cccn3)cc2)c2ccccc2O1` (stereo not drawn) [Compound B50] stands 2.57 µM; under `Cn1cc2c(-c3cc(F)c(CN4CC(C(=O)N[C@H]5CCCC[C@@H]5O)Oc5ccccc54)c(F)c3)cccc2n1` (stereo partly drawn) [Compound B6, 4-(2,6-difluoro-4-(2-methyl-2H-indazol-4-yl)benzyl)-N-((1S,2S)-2-hydroxycyclohexyl)-3,4-dihydro-2H-benzo[b][1,4]oxazine-2-carboxamide], at least 10 µM; under `COc1ccc(CN2C[C@H](C(=O)N[C@H]3CCCC[C@@H]3O)Oc3ccccc32)cc1` (single isomer, unassigned) [Compound B9], 7.75 µM. Consider `O=C(N[C@H]1CCCC[C@@H]1O)C1CN(Cc2ccc(-n3cccn3)cc2)c2ccccc2O1` (single isomer, unassigned) [Compound B29], for which the EC50 came out at 0.573 µM.

As to `O=C(N[C@H]1CCCC[C@@H]1O)C1CN(Cc2ccc(C(F)(F)F)nc2)c2ccccc2O1` (stereo partly drawn) [Compound B42], the concentration for a half-maximal effect (EC50) was determined as 4.7 µM. Still for that read-out and setting: the same measure for `O=C(Nc1ccccc1O)C1CN(Cc2ccc(-n3cccn3)cc2)c2ccccc2O1` (stereo not drawn) [Compound B14]: at least 10 µM; for `COc1ccccc1OCCNC(=O)C1CN(Cc2ccc(-n3cccn3)cc2)c2ccccc2O1` (stereo not drawn) [Compound B39]: above 30 µM.

Take `O=C(NC1CCOCC1)C1CN(Cc2ccc(-n3cccn3)cc2)c2ccccc2O1` (stereo not drawn) [Compound B30]: the concentration for a half-maximal effect (EC50) was 4.43 µM.

`COCCNC(=O)C1CN(Cc2ccc(-n3cccn3)cc2)c2ccccc2O1` (stereo not drawn) [Compound B51]: the EC50 came to 7.65 µM. On the same count and under the same terms, the same measure for `COc1ccc(OCCNC(=O)C2CN(Cc3ccc(-n4cccn4)cc3)c3ccccc3O2)cc1` (stereo not drawn) [Compound B25]: above 30 µM; for `O=C(NC1COC1)C1CN(Cc2ccc(-n3cccn3)cc2)c2ccccc2O1` (stereo not drawn) [Compound B3]: at least 10 µM; for `O=C(NCCOc1ccccc1F)C1CN(Cc2ccc(-n3cccn3)cc2)c2ccccc2O1` (stereo not drawn) [Compound B38]: above 30 µM. Same read-out and setting: under `O=C(N[C@@H](CO)[C@H](O)c1ccccc1)C1CN(Cc2ccc(-n3cccn3)cc2)c2ccccc2O1` (stereo partly drawn) [Compound B44] stands at least 10 µM; under `Cc1ccccc1NC(=O)C1CN(Cc2ccc(-n3cccn3)cc2)c2ccccc2O1` (stereo not drawn) [Compound B56], at least 10 µM; under `COc1cccnc1NC(=O)C1CN(Cc2ccc(-n3cccn3)cc2)c2ccccc2O1` (stereo not drawn) [Compound B48], 2.4 µM. The same measure, in the same setting: the same measure for `CC1(NC(=O)C2CN(Cc3ccc(-n4cccn4)cc3)c3ccccc3O2)COC1` (stereo not drawn) [Compound B34]: above 30 µM; for `O=C(NC1CCOC1)C1CN(Cc2ccc(-n3cccn3)cc2)c2ccccc2O1` (stereo not drawn) [Compound B23]: at least 10 µM; for `CC(C)NC(=O)C1CN(Cc2ccc(-n3cccn3)cc2)c2ccccc2O1` (stereo not drawn) [Compound B22]: at least 10 µM.

In the case of `CC(C)C[C@@H](CO)NC(=O)[C@H]1CN(Cc2ccc(-n3cccn3)cc2)c2ccccc2O1` (single isomer, unassigned) [Compound B20], the concentration for a half-maximal effect (EC50) stood at 2.07 µM. Take `C[C@@H](CO)NC(=O)C1CN(Cc2ccc(-n3cccn3)cc2)c2ccccc2O1` (stereo partly drawn) [Compound B35]: the EC50 was determined as 4.66 µM. Still for that read-out and setting: under `CC(C)(O)CNC(=O)C1CN(Cc2ccc(-n3cccn3)cc2)c2ccccc2O1` (stereo not drawn) [Compound B36] stands 3.8 µM.

Take `O=C(N[C@H]1CCCC[C@@H]1O)C1CN(Cc2c(F)cc(Br)cc2F)c2ccccc2O1` (stereo partly drawn) [Compound B4, 4-(4-bromo-2,6-difluorobenzyl)-N-((1S,2S)-2-hydroxycyclohexyl)-3,4-dihydro-2H-benzo[b][1,4]oxazine-2-carboxamide]: the concentration for a half-maximal effect (EC50) is above 30 µM. With `CC(C)C[C@@H](CO)NC(=O)[C@@H]1CN(Cc2ccc(-n3cccn3)cc2)c2ccccc2O1` (single isomer, unassigned) [Compound B19], the half-maximal effective concentration (EC50) turned out to be 3.69 µM.

Consider `O=C(NC1CC1)C1CN(Cc2ccc(-n3cccn3)cc2)c2ccccc2O1` (stereo not drawn) [Compound B17], for which the EC50 was at least 10 µM. Same read-out and setting: the same measure for `O=C(N[C@H]1CCCC[C@@H]1O)C1CN(Cc2ccc(Cl)nc2)c2ccccc2O1` (stereo partly drawn) [Compound B8]: 4.21 µM; for `O=C(Nc1ncccc1O)C1CN(Cc2ccc(-n3cccn3)cc2)c2ccccc2O1` (stereo not drawn) [Compound B2, 4-(4-(1H-pyrazol-1-yl)benzyl)-N-(3-hydroxypyridin-2-yl)-3,4-dihydro-2H-benzo[b][1,4]oxazine-2-carboxamide]: 0.543 µM. For the compound `Cc1ccc(NC(=O)C2CN(Cc3ccc(-n4cccn4)cc3)c3ccccc3O2)c(O)c1` (stereo not drawn) [Compound B53], the EC50 is above 30 µM. As for `O=C(NC1CCCC1)C1CN(Cc2ccc(-n3cccn3)cc2)c2ccccc2O1` (stereo not drawn) [Compound B28], the EC50 was at least 10 µM. For `COCC(C)NC(=O)C1CN(Cc2ccc(-n3cccn3)cc2)c2ccccc2O1` (stereo not drawn) [Compound B43], the 50% effective concentration (EC50) is at least 10 µM. Regarding `CNC(=O)C1CN(Cc2ccc(-n3cccn3)cc2)c2ccccc2O1` (stereo not drawn) [Compound B21], the EC50 was 5.36 µM. On the same count and under the same terms, the same measure for `O=C(Nc1ncc(F)cc1F)C1CN(Cc2ccc(-n3cccn3)cc2)c2ccccc2O1` (stereo not drawn) [Compound B49]: at least 10 µM; for `O=C(NC1CCC1)C1CN(Cc2ccc(-n3cccn3)cc2)c2ccccc2O1` (stereo not drawn) [Compound B27]: 7.66 µM; for `O=C(Nc1ccccn1)C1CN(Cc2ccc(-n3cccn3)cc2)c2ccccc2O1` (stereo not drawn) [Compound B15]: at least 10 µM. On the same count and under the same terms, under `O=C(N[C@H]1CCCC[C@@H]1O)C1CN(Cc2ccc(-n3cccn3)cc2)c2ccccc2O1` (stereo partly drawn) [Compound B1, 4-(4-(1H-pyrazol-1-yl)benzyl)-N-((1S,2S)-2-hydroxycyclohexyl)-3,4-dihydro-2H-benzo[b][1,4]oxazine-2-carboxamide] stands 0.302 µM; under `COc1ccc(CN2CC(C(=O)N[C@H]3CCCC[C@@H]3O)Oc3ccccc32)cc1` (stereo partly drawn) [Compound B5], at least 10 µM. On the same count and under the same terms, under `O=C(N[C@H]1CCCC[C@@H]1O)C1CN(Cc2ccc(-n3cccn3)cc2)c2ccccc2O1` (single isomer, unassigned) [Compound B41] stands 0.199 µM; under `Cn1cc(-c2ccc(CN3CC(C(=O)N[C@H]4CCCC[C@@H]4O)Oc4ccccc43)cc2)cn1` (stereo partly drawn) [Compound B7], above 30 µM. Turning to `O=C(NCc1ccccn1)C1CN(Cc2ccc(-n3cccn3)cc2)c2ccccc2O1` (stereo not drawn) [Compound B12], the EC50 came to 4.82 µM. Take `COc1ccc(CN2C[C@@H](C(=O)N[C@H]3CCCC[C@@H]3O)Oc3ccccc32)cc1` (single isomer, unassigned) [Compound B10]: the half-maximal effective concentration (EC50) was at least 10 µM.

In the case of `O=C(N[C@H]1CCCC[C@@H]1O)C1CN(Cc2ccc(C(F)(F)F)nc2)c2cccc(F)c2O1` (stereo partly drawn) [Compound B57, 8-fluoro-N-((1S,2S)-2-hydroxycyclohexyl)-4-((6-(trifluoromethyl)pyridin-3-yl)methyl)-3,4-dihydro-2H-benzo[b][1,4]oxazine-2-carboxamide], the concentration for a half-maximal effect (EC50) was found to be 3.6 µM. Same read-out and setting: under `CC(C)CNC(=O)C1CN(Cc2ccc(-n3cccn3)cc2)c2ccccc2O1` (stereo not drawn) [Compound B11] stands 3.56 µM.
